Measurements as given in patent US4992442A, “Pyrrolo(3,2-e)pyrazolo(1,5-a)pyrimidine derivative and medicine comprising the same” (Pola Chemical Industries Inc., Japan, priority 1988, dated 1991).

Key:
basilar artery [1] = experiment: Vasodilative activity, Magnus method, dog basilar artery contracted with PGF2 α; conditions: Canis lupus familiaris; PGF2 α 5×10^-6 M; read-out: 50% Contraction-inhibitive Concentrations, Basilar Artery, PGF2 α
Protocol: (§1) A bastard, male, adult dog weighing about 8-10 kg was anesthetized with pentobarbital sodium (25 mg/kg, i.v.) and killed by bleeding. Its basilar and coronary arteries were immediately extracted. […] Static tensions of the ring were isometrically measured and recorded.
(§2) Test compounds were accumulatively given to specimens contracted with 1×10^-7 M (final concentration) U-46619 to the final concentration of 1×10^-7 to 1×10^-4 M to investigate their vasodilative activities.
(§3) The vasodilative activity and coronary blood flow increase activity were respectively measured according to the following Methods 1 and 2.
(§4) The same Magnus method was used as in Experimental Example 1, except that instead of 1×10^-7 M (final concentration) U-46619, 5×10^-6 M (final concentration), PGF2 α or 60 mM potassium chloride was used.

basilar artery [2] = experiment: Vasodilative activity, Magnus method, dog basilar artery contracted with potassium chloride; conditions: Canis lupus familiaris; 60 mM potassium chloride; read-out: 50% Contraction-inhibitive Concentrations, Basilar Artery, KCl
Protocol: as §1, §2, §3, §4

coronary artery [3] = experiment: Vasodilative activity, Magnus method, dog coronary artery contracted with PGF2 α; conditions: Canis lupus familiaris; PGF2 α 5×10^-6 M; read-out: 50% Contraction-inhibitive Concentrations, Coronary Artery, PGF2 α
Protocol: as §1, §2, §3, §4

coronary artery [4] = experiment: Vasodilative activity, Magnus method, dog coronary artery contracted with potassium chloride; conditions: Canis lupus familiaris; 60 mM potassium chloride; read-out: 50% Contraction-inhibitive Concentrations, Coronary Artery, KCl
Protocol: as §1, §2, §3, §4

coronary blood flow = experiment: Coronary blood flow increase activity in anesthetized dog; type: in vivo; conditions: maximum flow relative to before administration
Text: as §3
The heart was exposed by an incision into pericardium through the left quartus costa rib. About 1 cm of a coronary vessel was peeled off from the surrounding tissues at about 1 cm from the left ramus circumplexus and a blood flow meter probe was installed for measuring the coronary blood flow. Left ventricle pressure, heart rate, right femoral artery pressure, and lower extremity blood flow rate were monitored. All test compounds were intravenously administered.
The maximum coronary blood flow rates achieved after the administration as a percentage of the blood flow before administration was taken as the coronary blood flow increase activity.

trachea [5] = experiment: Tracheal expansion activity against acetyl choline (ACh) induced tracheal contraction; design: species or system Hartley guinea pig; conditions: for IC50: Cavia porcellus, ACh 1×10^-6 M, read-out: 50% Contraction-inhibitive Concentration, ACh Contraction; for Ratio of Effectiveness, ACh Contraction: reverse ratio of 50% contraction-inhibitive concentration to that of theophylline
Text: (§6) Tracheal expansion activity against tracheal contraction induced by acetyl choline (ACh) and histamine (His)
(§7) A Hartley guinea pigs (male, weight: 400-500 g) was killed by bleeding and its trachea was immediately extracted. […] Static tensions was isometrically measured.

trachea [6] = experiment: Tracheal expansion activity against histamine (His) induced tracheal contraction; design: species or system Hartley guinea pig; conditions: for IC50: Cavia porcellus, His 1×10^-6 M, read-out: 50% Contraction-inhibitive Concentration, His Contraction; for Ratio of Effectiveness, His Contraction: reverse ratio of 50% contraction-inhibitive concentration to that of theophylline
Text: as §6, §7

[7] = Acute toxicity test, oral, mice; conditions: mouse, in vivo, ICR male mice, 14 days observation
Protocol: An acute toxicity test on compounds of the present invention was performed according to the following method.
ICR male mice were purchased at 4 weeks of age and fed for 10 days before testing. The test compound suspended in 1% methylcellullose solution was orally administered using a metallic gaster probe at a dose of 0.1 ml (as the test compound) per […] of body weight. The mice were fasted for 15 hours before the administration. Observation was made for 14 days after the administration, and the LD50 value was determined from the survival rate by the Richfield Wilcoxin method.

basilar artery [8] = experiment: Vasodilative activity, Magnus method, dog basilar artery ring contracted with U-46619; conditions: for IC50: Canis lupus familiaris, U-46619 1×10^-7 M, read-out: 50% Contraction-inhibitive Concentrations; for vasodilative activity, times stronger than trapidil: U-46619, relative to trapidil
Protocol: (§5) Vasodilative activity of the compound of the present invention was measured by the Magnus method.
as §1, §2

coronary artery [9] = experiment: Vasodilative activity, Magnus method, dog coronary artery ring contracted with U-46619; conditions: for IC50: Canis lupus familiaris, U-46619 1×10^-7 M, read-out: 50% Contraction-inhibitive Concentrations; for vasodilative activity, times stronger than trapidil: U-46619, relative to trapidil
Protocol: as §5, §1, §2

SMILES	IC50 (basilar artery [1]) [nM]	IC50 (basilar artery [2]) [nM]	IC50 (coronary artery [3]) [nM]	IC50 (coronary artery [4]) [nM]	Rate of Coronary Blood Flow Increase, 50 μg/kg (iv) (coronary blood flow) [%]	Rate of Coronary Blood Flow Increase, 100 μg/kg (iv) (coronary blood flow) [%]	IC50 (trachea [5]) [nM]	Ratio of Effectiveness, ACh Contraction (trachea [5])	IC50 (trachea [6]) [nM]	Ratio of Effectiveness, His Contraction (trachea [6])	LD50 at 336 h [7] [mg/kg]	IC50 (basilar artery [8]) [nM]	vasodilative activity, times stronger than trapidil (basilar artery [8]) [times]	IC50 (coronary artery [9]) [nM]	vasodilative activity, times stronger than trapidil (coronary artery [9]) [times]
CCC(C)N1CCc2c(C)nc3c(C#N)cnn3c21 (centres unmarked) [Compound No. 5, 8-sec-butyl-3-cyano-6,7-dihydro-5-methyl-8H-pyrrolo [3,2-e]pyrazolo[1,5-a]pyrimidine]	2500	> 100000	3200	> 100000	8.2 ± 3.7	27.3 ± 5.2	500	10.0	400	15.8	≥ 1000	–	–	–	–
Cc1nc2c(C#N)c(C)nn2c2c1CCN2C(C)(C)C [Compound No. 2, 8-tert-butyl-3-cyano-6,7-dihydro-2,5-dimethyl-8H-pyrrolo[3,2-e]pyrazolo[1,5-a]pyrimidine]	–	–	–	–	–	–	–	–	–	–	≥ 2000	2700	37	1800	35
Cc1nc2c(C#N)cnn2c2c1CCN2C(C)(C)C [Compound No. 1, 8-tert-butyl-3-cyano-6,7-dihydro-5-methyl-8H-pyrrolo[3,2-e]pyrazolo[1,5-a]pyrimidine]	1600	> 100000	1300	> 100000	51.9 ± 11.9	181.6 ± 27.8	200	25.0	1300	4.9	≥ 2000	2700	37	1600	39
Cc1nc2c(C#N)cnn2c2c1CCN2C1CCCC1 [Compound No. 8, 3-cyano-8-cyclopentyl-6,7-dihydro-5-methyl-8H-pyrrolo [3,2-e]pyrazolo[1,5-a]pyrimidine]	> 100000	> 100000	200	> 100000	–	–	130	38.5	1000	6.3	≥ 1000	–	–	–	–
Cc1nc2ccnn2c2c1CCN2C(C)(C)C [Compound No. 11, 8-tert-butyl-6,7-dihydro-5-methyl-8H-pyrrolo[3,2-e]pyrazolo[1,5-a]pyrimidine]	7900	10000	3200	16000	–	–	–	–	6300	1.0	≥ 1000	–	–	–	–
CCCCCCN1CCc2c(C)nc3c(C#N)cnn3c21 [Compound No. 7, 3-cyano-6,7-dihydro-8-hexyl-5-methyl-8H-pyrrolo [3,2-e]pyrazolo[1,5-a]pyrimidine]	> 100000	85000	> 100000	> 100000	–	–	6300	0.8	13000	0.5	≥ 1000	–	–	–	–
